“And” between values parts separate entries of the source, which are not always exact repeats. Identical values can stand only once.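 Protocol summary: plate cells (96-well), add compound at 5 concentrations, incubate 48 h, interpolate endpoints linearly. GI50 marks 50% less growth.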 The source made the active and inactive calls. Rule as the data show it: active = GI50 up to about 1.1 µM and inactive = higher.
Experiments:
Test in all cases: growth of human tumour cells (NCI), 48 h
MDA-MB-435 = tested on: MDA-MB-435
UACC-62 = tested on: UACC-62
A549 = tested on: A549
NCI/ADR-RES = tested on: NCI/ADR-RES
HL-60 = tested on: HL-60
ACHN = tested on: ACHN
TK-10 = tested on: TK-10
PC-3 = tested on: PC-3
KM12 = tested on: KM12
CCRF-CEM = tested on: CCRF-CEM
HCT-116 = tested on: HCT-116
IGROV-1 = tested on: IGROV-1
MOLT-4 = tested on: MOLT-4
Malme-3M = tested on: Malme-3M
OVCAR-3 = tested on: OVCAR-3
SK-OV-3 = tested on: SK-OV-3
MDA-N = tested on: MDA-N
SN12C = tested on: SN12C
T47D = tested on: T47D
SW-620 = tested on: SW-620
DU-145 = tested on: DU-145
HOP-92 = tested on: HOP-92
NCI-H460 = tested on: NCI-H460
Hs-578T = tested on: Hs-578T
SF-268 = tested on: SF-268
NCI-H23 = tested on: NCI-H23
MCF7 = tested on: MCF7
HCT-15 = tested on: HCT-15
K562 = tested on: K562
A498 = tested on: A498
HOP-62 = tested on: HOP-62
SK-MEL-5 = tested on: SK-MEL-5
SF-539 = tested on: SF-539
SNB-19 = tested on: SNB-19
LOX IMVI = tested on: LOX IMVI
COLO 205 = tested on: COLO 205
OVCAR-8 = tested on: OVCAR-8
OVCAR-4 = tested on: OVCAR-4
M14 = tested on: M14
SNB-75 = tested on: SNB-75
HT-29 = tested on: HT-29
EKVX = tested on: EKVX
SR = tested on: SR
UO-31 = tested on: UO-31
SF-295 = tested on: SF-295
U-251 = tested on: U-251
HCC 2998 = tested on: HCC 2998
RXF 393 = tested on: RXF 393
SK-MEL-28 = tested on: SK-MEL-28
786-0 = tested on: 786-0
RPMI-8226 = tested on: RPMI-8226
NCI-H226 = tested on: NCI-H226
UACC-257 = tested on: UACC-257
SK-MEL-2 = tested on: SK-MEL-2
CAKI-1 = tested on: CAKI-1
NCI-H522 = tested on: NCI-H522
MDA-MB-231 = tested on: MDA-MB-231
OVCAR-5 = tested on: OVCAR-5

SMILES: CN1C2C=CC(=O)C1C(C#N)C2 (stereo not drawn)
- GI50 (MDA-MB-435): 29.5 µM (inactive) and 42.9 µM (inactive)
- GI50 (UACC-62): 80.4 µM (inactive) and 76.4 µM (inactive)
- GI50 (A549): 66.4 µM (inactive) and 34.5 µM (inactive)
- GI50 (NCI/ADR-RES): 30.5 µM (inactive) and 28.2 µM (inactive)
- GI50 (HL-60): 32.2 µM (inactive) and 18.6 µM (inactive)
- GI50 (ACHN): 72.3 µM (inactive) and 52.5 µM (inactive)
- GI50 (TK-10): > 100 µM (inactive) and 66.4 µM (inactive)
- GI50 (PC-3): > 100 µM (inactive)
- GI50 (KM12): 42.9 µM (inactive) and 38.5 µM (inactive)
- GI50 (CCRF-CEM): 23.2 µM (inactive) and 19 µM (inactive)
- GI50 (HCT-116): 33.5 µM (inactive) and 18.9 µM (inactive)
- GI50 (IGROV-1): 56 µM (inactive)
- GI50 (MOLT-4): 30.1 µM (inactive) and 29.5 µM (inactive)
- GI50 (Malme-3M): 24 µM (inactive) and 40 µM (inactive)
- GI50 (OVCAR-3): 62.1 µM (inactive) and 35.4 µM (inactive)
- GI50 (SK-OV-3): > 100 µM (inactive) and 83.8 µM (inactive)
- GI50 (MDA-N): 29.1 µM (inactive) and 41.3 µM (inactive)
- GI50 (SN12C): 59.7 µM (inactive) and 35.8 µM (inactive)
- GI50 (T47D): 21.1 µM (inactive) and 39.2 µM (inactive)
- GI50 (SW-620): 28.7 µM (inactive) and 51.8 µM (inactive)
- GI50 (DU-145): 68.7 µM (inactive) and 40 µM (inactive)
- GI50 (HOP-92): 9.82 µM (inactive) and 16.4 µM (inactive)
- GI50 (NCI-H460): 37.2 µM (inactive) and 31.7 µM (inactive)
- GI50 (Hs-578T): > 100 µM (inactive) and 85.3 µM (inactive)
- GI50 (SF-268): 95.9 µM (inactive) and 75.5 µM (inactive)
- GI50 (NCI-H23): 32.4 µM (inactive) and 22.3 µM (inactive)
- GI50 (MCF7): 31.8 µM (inactive) and 35.8 µM (inactive)
- GI50 (HCT-15): 30.5 µM and 24.1 µM
- GI50 (K562): 36.1 µM (inactive) and 19.3 µM (inactive)
- GI50 (A498): 49.5 µM (inactive) and 46.1 µM (inactive)
- GI50 (HOP-62): 94.4 µM (inactive)
- GI50 (SK-MEL-5): 55.1 µM (inactive)
- GI50 (SF-539): 28.4 µM (inactive) and 36.3 µM (inactive)
- GI50 (SNB-19): 77.8 µM (inactive)

SMILES: COc1cccc(C2CC(=O)c3cccn32)c1 (stereo not drawn)
- GI50 (MDA-MB-435): > 100 µM (inactive)
- GI50 (LOX IMVI): > 100 µM (inactive)
- GI50 (UACC-62): > 100 µM (inactive)
- GI50 (COLO 205): > 100 µM (inactive)
- GI50 (A549): 94.6 µM (inactive)
- GI50 (OVCAR-8): > 100 µM (inactive)
- GI50 (OVCAR-4): > 100 µM (inactive)
- GI50 (M14): > 100 µM (inactive)
- GI50 (NCI/ADR-RES): > 100 µM (inactive)
- GI50 (HL-60): 32.4 µM (inactive)
- GI50 (ACHN): > 100 µM (inactive)
- GI50 (TK-10): > 100 µM (inactive)
- GI50 (SNB-75): > 100 µM (inactive)
- GI50 (PC-3): 73.3 µM (inactive)
- GI50 (KM12): > 100 µM (inactive)
- GI50 (CCRF-CEM): > 100 µM (inactive)
- GI50 (HCT-116): > 100 µM (inactive)
- GI50 (HT-29): > 100 µM (inactive)
- GI50 (IGROV-1): > 100 µM (inactive)
- GI50 (MOLT-4): 71.8 µM (inactive)
- GI50 (EKVX): > 100 µM (inactive)
- GI50 (SR): > 100 µM (inactive)
- GI50 (UO-31): 29.4 µM (inactive)
- GI50 (OVCAR-3): > 100 µM (inactive)
- GI50 (SK-OV-3): > 100 µM (inactive)
- GI50 (SF-295): > 100 µM (inactive)
- GI50 (U-251): > 100 µM (inactive)
- GI50 (SN12C): > 100 µM (inactive)
- GI50 (HCC 2998): > 100 µM (inactive)
- GI50 (RXF 393): > 100 µM (inactive)
- GI50 (T47D): 50.2 µM (inactive)
- GI50 (SW-620): > 100 µM (inactive)
- GI50 (SK-MEL-28): > 100 µM (inactive)
- GI50 (786-0): > 100 µM (inactive)
- GI50 (RPMI-8226): > 100 µM (inactive)
- GI50 (NCI-H226): > 100 µM (inactive)
- GI50 (DU-145): > 100 µM (inactive)
- GI50 (HOP-92): > 100 µM (inactive)
- GI50 (Hs-578T): 23.4 µM (inactive)
- GI50 (UACC-257): > 100 µM (inactive)
- GI50 (SF-268): 69.3 µM (inactive)
- GI50 (NCI-H23): > 100 µM (inactive)
- GI50 (MCF7): > 100 µM (inactive)
- GI50 (SK-MEL-2): > 100 µM (inactive)
- GI50 (CAKI-1): > 100 µM (inactive)
- GI50 (HCT-15): > 100 µM
- GI50 (K562): > 100 µM (inactive)
- GI50 (A498): > 100 µM (inactive)
- GI50 (HOP-62): > 100 µM (inactive)
- GI50 (SF-539): > 100 µM (inactive)
- GI50 (NCI-H522): > 100 µM (inactive)
- GI50 (MDA-MB-231): 82.6 µM (inactive)
- GI50 (OVCAR-5): > 100 µM (inactive)
- GI50 (SNB-19): > 100 µM (inactive)

— ChEMBL document CHEMBL1201862, “PubChem BioAssay data set” (2004)
